d = 2'-deoxy (DNA)

Holding throughout (type): cell-based, human
In data set [1] the test system is VRAC. The data set is described as follows: Whole-cell patch-clamp of swelling-activated (VRAC) currents, hypotonic bath, 0 μM Ca2+ pipette. The settings on record: HPDE and BxPC-3 cells, inhibitor 20 μM, Vm = +65 mV. As to the method:
Cells were grown on poly-L-lysine coated coverslips. For knockdown experiments, cells were transfected with siRNA targeting ANO1 or scrambled siRNA shortly after complete attachment of the cells (approx. 3 h after plating). Currents were measured 36–48 h after transfection. Whole-cell patch-clamp recordings were performed using the Axopatch 200B amplifier interfaced to a Digidata 1440A controlled by pClamp10 software (Molecular Devices, USA). Analogue signals were acquired at 2.5 kHz and filtered at 1 kHz. […] An agar bridge made of 3 % agar and 97 % of the bath solution containing NMDG-Cl (below) was used as reference electrode. Current activations were recorded from an output holding potential, V out = 0 mV with ramp protocols spanning from −100 to 100 mV over 1 s and run continuously with 15-s intervals. […] Liquid junction potentials (V lj) were estimated as described in [10] with membrane potentials calculated as, V m = V out − V lj. […] Instantaneous currents were measured 1 ms after each voltage step. […]
One micromolar free Ca^2+ pipette solution include the following (in mM): 100 CsAsp, 40 CsCl, 4.34 CaCl2, 4 Na2ATP, 1 MgCl2, 5 EGTA, 10 HEPES, pH 7.2, osmolality 295 mosmol/kg or 0 μM free Ca^2+ solution containing no CaCl2 and 10 mM EGTA. […] All osmolalities were measured in a Wescor Vapro model 5520 osmometer (Wescor Inc., USA) calibrated by the manufacturer’s Optimol standard solutions. […]
A general note: The patch-clamp technique gives a direct electrical read-out from membranes.

The subject of data set [2] is BxPC-3 cells. The data set is described as follows: BrdU incorporation cell proliferation assay. The note with it: BxPC-3, inhibitor 20 μM, 24 h. On the procedure:
(§1) To assess cell proliferation and apoptosis, cells were plated in duplicates on a 96-well plate and incubated in 100 μl of the cell line appropriate media described above. Cells were transfected with siRNA soon after complete attachment (approx. 3 h after seeding). Cells were treated with vehicle, 20 μM gemcitabine, 20 μM T16Ainh-A01, or 10 μM free NS3728 (see below) after culture in a humidified 37 °C and 5 % CO2 incubator overnight. BrdU incorporation was measured using Cell Proliferation ELISA, BrdU (chemiluminescent) (Roche Diagnostics A/S, Denmark) following the manufacturer’s instructions. Caspases 3, 6, and 7 activation was evaluated using Homogeneous Caspases Assay (fluorimetric) (Roche Diagnostics A/S, Denmark).
(§2) Fig. 7 VRAC, but not ANO1, regulates cellular proliferation. a Summary of BrdU incorporation in HPDE, Capan-1, AsPC-1, and BxPC-3 cells after various treatments as indicated. Cells were transfected shortly after complete attachment (approx. 3 h) and BrdU incorporation was assessed 36 h after transfection. To investigate effect of inhibitors, cells were incubated for 24 h with respective inhibitor. Values shown are relative to appropriate control. Data shown represents mean ± s.e.m. of n = 4–6 individual experiments. **p ≤ 0.01 and ***p ≤ 0.001 when compared with control

In data set [3] the test system is HPDE, Capan-1, AsPC-1, and BxPC-3 cells. The data set is described as follows: BrdU incorporation cell proliferation assay, all tested cell lines. As to the method:
as §1, §2
Background: Incorporation of labelled thymidine or its analogues reports DNA synthesis.

Regarding `CC(C)(C)C1CCc2c(sc(NC(=O)c3ccco3)c2C(=O)O)C1` (stereo not drawn) [CaCCinh-A01, 6-(1,1-dimethylethyl)-2-[(2-furanylcarbonyl)amino]-4,5,6,7-tetrahydrobenzo[b]thiophene-3-carboxylic acid], the “effect on VRAC currents” value in data set [1] is recorded as “Neither T16Ainh-A01 nor CaCCinh-A01 inhibited the VRAC currents significantly”. In data set [2], the “proliferation (BrdU incorporation)” value is reported as “larger effect”.
Regarding “siRNA targeting ANO1: Predesigned siRNA oligo from Sigma-Aldrich, 5′-CCUUCAACGUCAGUGACUU[dT][dT]-3′, 5′-AAGUCACUGACGUUGAAGG[dT][dT]-3′ (RNA, 3' dTdT, backbone not given here)”, in data set [3] (siRNA 50 nM vs mock 5 nM, 36 h after transfection, any of the tested cell lines), the “proliferation (BrdU incorporation)” value was “did not cause any significant change in proliferation”.
For `CCc1c(C)nc(SCC(=O)Nc2nc(-c3ccc(OC)cc3)cs2)[nH]c1=O` [T16Ainh-A01, 2-[(5-Ethyl-1,6-dihydro-4-methyl-6-oxo-2-pyrimidinyl)thio]-N-[4-(4-methoxyphenyl)-2-thiazolyl]acetamide], the “effect on VRAC currents” value in data set [1] is on record as “Neither T16Ainh-A01 nor CaCCinh-A01 inhibited the VRAC currents significantly”. In addition, the “proliferation (BrdU incorporation)” value was “slight, but non-significant decrease of proliferation” in data set [2] and “none of the ANO1-overexpressing cancer cells showed any significant decrease in proliferation” in data set [3] (ANO1-overexpressing cancer cells, 20 μM, 24 h).

For the origin of these results see publication PMC4464647, “ANO1 (TMEM16A) in pancreatic ductal adenocarcinoma (PDAC)” (Pflugers Archiv, 2014).
